Results from the supplement of paper PMC10307832.

Tests used:
Experiment in all cases: relative viability (nuclei count vs DMSO), 5 days (fraction); higher = more cells survive
[1] = compound: CCn1c(-c2nonc2N)nc2c(C#CC(C)(C)O)ncc(OC[C@H]3CCCNC3)c21 + N=C(N)NC(=N)NCCc1ccccc1 [Phenformin] (partner 250 µM)
Procedure, shortened: (§1)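 Lung cancer cell lines in 1536-well plates were dosed by pin tool the day after seeding, either with one drug alone or with a fixed anchor-drug dose plus five library-drug doses (not always all listed) in √10 steps. After 5 days, cells were fixed and their nuclei stained in one step (final 0.05% Triton X-100, 1% formaldehyde, 1 ug/ml Hoechst), then counted on 4× images. Relative viability is the nuclei count in treated wells divided by that in vehicle wells. Values are medians of duplicate plates.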

[2] = compound: CCOC1=CC=CC=C1N=NC2=C(NN(C2=O)C3=NC(=CS3)C4=CC=CC=C4)C [BAM7] + CS(=O)(=O)N1CCN(Cc2cc3nc(-c4cccc5[nH]ncc45)nc(N4CCOCC4)c3s2)CC1 [Pictilisib] (partner 1 µM)
Procedure, shortened: as §1

[3] = compound: CCOC1=CC=CC=C1N=NC2=C(NN(C2=O)C3=NC(=CS3)C4=CC=CC=C4)C [BAM7] + CC(=O)Nc1cccc(-n2c(=O)n(C3CC3)c(=O)c3c(Nc4ccc(I)cc4F)n(C)c(=O)c(C)c32)c1 [Trametinib] (partner 0.02 µM)
Procedure, shortened: as §1

[4] = compound: CCOC1=CC=CC=C1N=NC2=C(NN(C2=O)C3=NC(=CS3)C4=CC=CC=C4)C [BAM7] + NC(=O)Nc1cc(-c2cccc(F)c2)sc1C(=O)N[C@H]1CCCNC1 [AZD7762] (partner 0.2 µM)
Procedure, shortened: as §1

| Cell Line | relative viability ([1]; first compound 0.01 µM) | relative viability ([1]; first compound 0.03162 µM) | relative viability ([1]; first compound 0.1 µM) | relative viability ([1]; first compound 0.3162 µM) | relative viability ([1]; first compound 1 µM) | relative viability ([2]; first compound 0.5 µM) | relative viability ([2]; first compound 5 µM) | relative viability ([2]; first compound 15.81 µM) | relative viability ([2]; first compound 50 µM) | relative viability ([3]; first compound 0.5 µM) | relative viability ([3]; first compound 5 µM) | relative viability ([3]; first compound 15.81 µM) | relative viability ([3]; first compound 50 µM) | relative viability ([4]; first compound 0.5 µM) | relative viability ([4]; first compound 5 µM) | relative viability ([4]; first compound 15.81 µM) | relative viability ([4]; first compound 50 µM) |
| --- | --- | --- | --- | --- | --- | --- | --- | --- | --- | --- | --- | --- | --- | --- | --- | --- | --- |
| LXF-289 | 0.511 | 0.54 | 0.507 | 0.511 | 0.534 | 0.892 | 0.844 | 0.766 | 0.786 | 0.739 | 0.762 | 0.734 | 0.641 | 1.12 | 1.17 | 1.13 | 1.04 |
| PC-14 | 0.448 | 0.519 | 0.597 | 0.531 | 0.609 | 0.775 | 1.02 | 0.598 | 0.656 | 0.829 | 0.745 | 0.542 | 0.697 | 0.356 | 0.317 | 0.334 | 0.374 |
| NCI-H650 | 0.435 | 0.414 | 0.429 | 0.415 | 0.444 | 0.893 | 1.03 | 0.896 | 0.77 | 1.02 | 0.98 | 1.04 | 1.28 | 0.913 | 0.992 | 1.01 | 1.15 |
| NCI-H1666 | 0.614 | 0.539 | 0.539 | 0.987 | 0.534 | 0.404 | 0.617 | 0.352 | 0.587 | 0.895 | 0.879 | 0.887 | 0.837 | 0.847 | 0.826 | 0.902 | 0.762 |
| NCI-H2085 | 0.627 | 0.694 | 0.674 | 0.706 | 0.719 | 0.388 | 0.43 | 0.365 | 0.439 | 0.587 | 0.521 | 0.471 | 0.52 | 0.967 | 0.709 | 0.915 | 0.991 |
| NCI-H1734 | 0.365 | 0.425 | 0.335 | 0.323 | 0.267 | 0.477 | 0.496 | 0.451 | 0.482 | 0.766 | 0.798 | 0.667 | 0.626 | 0.559 | 0.642 | 0.526 | 0.548 |
| NCI-H2126 | 0.565 | 0.498 | 0.513 | 0.496 | 0.478 | 0.514 | 0.448 | 0.507 | 0.479 | 0.516 | 0.499 | 0.519 | 0.476 | 0.804 | 0.983 | 1.03 | 0.936 |
| EMC-BAC-2 | 0.487 | 0.491 | 0.578 | 0.502 | 0.52 | 0.521 | 0.542 | 0.595 | 0.559 | 0.941 | 0.944 | 0.941 | 1.02 | 1.15 | 0.999 | 1.22 | 1.24 |
